Laboratory results published in ChEMBL document CHEMBL5442175, “EUbOPEN Chemogenomics Library - PDSP Secondary Binding” (2024).

Legend:
[1] = target: T1, Alpha-2A adrenergic receptor (Homo sapiens, UniProt P08913); assay: (§1) PDSP Secondary Binding target: ADRA2A - Compounds are tested at 10 uM concentration, plate are incubated at room temperature in the dark for 90 minutes. Reaction are stopped by vacuum filtration onto 0.3% polyethyleneimine soaked filter mats using Filtermate harvester. Scintillation cocktail is then melted onto microwave-dried filters on a hot plate and the radio activity is counted in Microbia counter.
T1 sequence (P08913 whole entry): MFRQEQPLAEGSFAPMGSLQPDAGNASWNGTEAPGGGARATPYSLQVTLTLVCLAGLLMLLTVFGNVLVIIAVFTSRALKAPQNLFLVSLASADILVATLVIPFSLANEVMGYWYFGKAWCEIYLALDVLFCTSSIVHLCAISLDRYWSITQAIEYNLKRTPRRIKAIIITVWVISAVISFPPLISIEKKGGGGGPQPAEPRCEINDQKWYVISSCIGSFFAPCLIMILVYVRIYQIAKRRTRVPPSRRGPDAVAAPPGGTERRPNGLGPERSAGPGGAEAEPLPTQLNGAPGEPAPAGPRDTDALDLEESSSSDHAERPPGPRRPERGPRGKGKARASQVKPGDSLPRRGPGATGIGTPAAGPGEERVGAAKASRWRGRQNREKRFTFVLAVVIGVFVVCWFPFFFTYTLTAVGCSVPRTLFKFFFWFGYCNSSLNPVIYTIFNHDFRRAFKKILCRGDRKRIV

[2] = target: 5-hydroxytryptamine receptor 2A (Homo sapiens, UniProt P28223); assay: as §1, with “HTR2A” for “ADRA2A”
Chain of 5-hydroxytryptamine receptor 2A (P28223 whole entry): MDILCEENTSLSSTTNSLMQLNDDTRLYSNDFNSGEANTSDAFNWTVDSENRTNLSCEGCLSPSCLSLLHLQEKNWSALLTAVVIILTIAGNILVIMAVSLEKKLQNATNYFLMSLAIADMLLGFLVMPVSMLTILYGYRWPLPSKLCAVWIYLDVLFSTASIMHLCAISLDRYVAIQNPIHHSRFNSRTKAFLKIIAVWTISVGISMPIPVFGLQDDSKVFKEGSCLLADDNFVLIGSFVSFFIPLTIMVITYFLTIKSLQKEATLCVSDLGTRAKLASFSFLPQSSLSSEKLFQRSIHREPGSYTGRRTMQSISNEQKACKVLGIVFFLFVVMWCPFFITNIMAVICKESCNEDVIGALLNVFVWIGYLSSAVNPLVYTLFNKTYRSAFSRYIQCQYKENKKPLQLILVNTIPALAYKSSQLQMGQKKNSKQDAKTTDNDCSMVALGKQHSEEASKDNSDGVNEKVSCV

[3] = target: 5-hydroxytryptamine receptor 5A (Homo sapiens, UniProt P47898); assay: as §1, with “HTR5A” for “ADRA2A”
[4] = target: Sigma intracellular receptor 2 (Homo sapiens, UniProt Q5BJF2); assay: as §1, with “TMEM97” for “ADRA2A”
Chain of Sigma intracellular receptor 2 (Q5BJF2 whole entry): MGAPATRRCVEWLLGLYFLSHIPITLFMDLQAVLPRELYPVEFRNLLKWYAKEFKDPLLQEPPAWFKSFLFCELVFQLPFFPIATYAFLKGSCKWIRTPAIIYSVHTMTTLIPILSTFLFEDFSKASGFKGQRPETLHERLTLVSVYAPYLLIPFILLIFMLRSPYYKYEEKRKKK

[5] = target: 5-hydroxytryptamine receptor 1E (Homo sapiens, UniProt P28566); assay: as §1, with “HTR1E” for “ADRA2A”
Chain of 5-hydroxytryptamine receptor 1E (P28566 whole entry): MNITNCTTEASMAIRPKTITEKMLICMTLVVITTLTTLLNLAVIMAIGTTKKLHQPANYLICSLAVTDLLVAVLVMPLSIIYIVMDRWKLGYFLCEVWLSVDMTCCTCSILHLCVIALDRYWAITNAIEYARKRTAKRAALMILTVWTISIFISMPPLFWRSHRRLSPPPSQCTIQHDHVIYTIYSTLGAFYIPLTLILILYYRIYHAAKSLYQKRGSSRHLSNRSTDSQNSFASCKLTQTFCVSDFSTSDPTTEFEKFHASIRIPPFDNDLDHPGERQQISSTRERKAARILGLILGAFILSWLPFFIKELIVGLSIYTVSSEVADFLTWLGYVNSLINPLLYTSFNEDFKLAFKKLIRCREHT

[6] = target: 5-hydroxytryptamine receptor 7 (Homo sapiens, UniProt P34969); assay: as §1, with “HTR7” for “ADRA2A”
Chain of 5-hydroxytryptamine receptor 7 (P34969 whole entry): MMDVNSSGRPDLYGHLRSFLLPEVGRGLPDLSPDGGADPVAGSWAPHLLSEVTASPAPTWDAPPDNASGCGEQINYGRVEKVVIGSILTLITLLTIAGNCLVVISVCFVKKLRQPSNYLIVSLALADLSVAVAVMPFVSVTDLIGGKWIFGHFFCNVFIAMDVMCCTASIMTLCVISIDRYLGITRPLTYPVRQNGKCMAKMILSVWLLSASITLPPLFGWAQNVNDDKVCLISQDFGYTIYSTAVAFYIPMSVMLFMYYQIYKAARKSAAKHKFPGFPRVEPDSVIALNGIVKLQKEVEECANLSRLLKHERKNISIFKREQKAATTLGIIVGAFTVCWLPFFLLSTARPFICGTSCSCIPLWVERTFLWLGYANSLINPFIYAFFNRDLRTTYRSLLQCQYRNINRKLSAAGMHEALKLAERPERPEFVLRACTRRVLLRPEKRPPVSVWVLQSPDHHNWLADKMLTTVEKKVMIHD

[7] = target: Sodium-dependent noradrenaline transporter (Homo sapiens, UniProt P23975); assay: as §1, with “SLC6A2” for “ADRA2A”
Chain of Sodium-dependent noradrenaline transporter (P23975 whole entry): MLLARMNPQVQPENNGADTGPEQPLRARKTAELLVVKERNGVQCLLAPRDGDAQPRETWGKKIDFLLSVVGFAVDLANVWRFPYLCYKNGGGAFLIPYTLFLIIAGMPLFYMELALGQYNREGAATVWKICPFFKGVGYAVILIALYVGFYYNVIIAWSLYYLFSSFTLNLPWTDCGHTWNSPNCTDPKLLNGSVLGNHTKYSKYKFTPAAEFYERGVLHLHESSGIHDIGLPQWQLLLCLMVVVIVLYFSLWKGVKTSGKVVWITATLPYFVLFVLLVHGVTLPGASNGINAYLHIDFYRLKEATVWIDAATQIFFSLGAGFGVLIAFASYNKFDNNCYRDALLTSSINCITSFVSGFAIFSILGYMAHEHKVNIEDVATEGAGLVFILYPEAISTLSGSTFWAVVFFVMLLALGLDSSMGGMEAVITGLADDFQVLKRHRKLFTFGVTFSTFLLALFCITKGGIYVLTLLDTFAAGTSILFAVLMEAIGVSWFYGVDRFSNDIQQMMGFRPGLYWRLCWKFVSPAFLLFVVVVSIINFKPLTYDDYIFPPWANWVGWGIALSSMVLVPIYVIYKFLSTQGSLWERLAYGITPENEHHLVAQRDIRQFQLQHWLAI

[8] = target: Beta-3 adrenergic receptor (Homo sapiens, UniProt P13945); assay: as §1, with “ADRB3” for “ADRA2A”
Chain of Beta-3 adrenergic receptor (P13945 whole entry): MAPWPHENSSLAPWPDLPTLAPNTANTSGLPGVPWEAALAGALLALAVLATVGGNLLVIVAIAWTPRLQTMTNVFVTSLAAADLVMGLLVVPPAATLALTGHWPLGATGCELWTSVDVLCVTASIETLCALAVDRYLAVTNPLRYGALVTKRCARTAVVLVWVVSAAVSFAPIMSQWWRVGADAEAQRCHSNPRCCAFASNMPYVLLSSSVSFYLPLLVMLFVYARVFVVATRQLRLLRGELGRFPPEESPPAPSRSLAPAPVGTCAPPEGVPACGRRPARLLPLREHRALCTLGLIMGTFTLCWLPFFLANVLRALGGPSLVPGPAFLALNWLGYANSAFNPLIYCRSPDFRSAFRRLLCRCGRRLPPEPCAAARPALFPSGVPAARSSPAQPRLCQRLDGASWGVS

Translocator protein = Translocator protein (Homo sapiens, UniProt P30536); assay: as §1, with “TSPO” for “ADRA2A”
Chain of Translocator protein (P30536 whole entry): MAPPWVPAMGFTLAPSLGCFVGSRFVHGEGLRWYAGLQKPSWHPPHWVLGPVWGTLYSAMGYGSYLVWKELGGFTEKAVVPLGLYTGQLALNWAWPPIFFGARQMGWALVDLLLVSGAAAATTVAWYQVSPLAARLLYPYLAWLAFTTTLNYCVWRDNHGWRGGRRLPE

Mu-type opioid receptor = Mu-type opioid receptor (Homo sapiens, UniProt P35372); assay: as §1, with “OPRM1” for “ADRA2A”
Chain of Mu-type opioid receptor (P35372 whole entry): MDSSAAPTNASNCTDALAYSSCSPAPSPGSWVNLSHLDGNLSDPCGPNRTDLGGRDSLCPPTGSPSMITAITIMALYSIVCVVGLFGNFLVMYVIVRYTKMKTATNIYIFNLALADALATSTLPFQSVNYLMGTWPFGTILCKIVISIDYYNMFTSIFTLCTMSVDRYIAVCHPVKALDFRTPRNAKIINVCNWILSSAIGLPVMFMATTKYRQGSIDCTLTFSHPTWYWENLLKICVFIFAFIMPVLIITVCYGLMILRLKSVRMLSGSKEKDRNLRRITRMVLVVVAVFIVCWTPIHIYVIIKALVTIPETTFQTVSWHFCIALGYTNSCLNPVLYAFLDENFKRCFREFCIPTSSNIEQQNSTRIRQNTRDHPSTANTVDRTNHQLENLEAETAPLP

D(3) dopamine receptor = D(3) dopamine receptor (Homo sapiens, UniProt P35462); assay: as §1, with “DRD3” for “ADRA2A”
D(1B) dopamine receptor = D(1B) dopamine receptor (Homo sapiens, UniProt P21918); assay: as §1, with “DRD5” for “ADRA2A”
Chain of D(1B) dopamine receptor (P21918 whole entry): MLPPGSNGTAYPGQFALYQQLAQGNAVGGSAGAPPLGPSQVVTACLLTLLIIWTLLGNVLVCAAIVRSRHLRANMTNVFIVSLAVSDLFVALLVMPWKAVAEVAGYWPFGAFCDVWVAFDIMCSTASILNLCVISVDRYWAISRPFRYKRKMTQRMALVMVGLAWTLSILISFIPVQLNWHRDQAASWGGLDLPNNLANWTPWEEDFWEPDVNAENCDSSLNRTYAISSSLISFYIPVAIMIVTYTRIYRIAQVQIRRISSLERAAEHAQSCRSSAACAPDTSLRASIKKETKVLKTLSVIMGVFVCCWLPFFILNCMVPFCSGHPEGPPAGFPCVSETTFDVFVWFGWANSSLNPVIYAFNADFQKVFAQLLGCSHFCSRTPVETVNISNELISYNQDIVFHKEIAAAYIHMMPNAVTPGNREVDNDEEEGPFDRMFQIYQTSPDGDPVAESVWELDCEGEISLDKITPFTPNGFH

[9] = target: 5-hydroxytryptamine receptor 1D (Homo sapiens, UniProt P28221); assay: as §1, with “HTR1D” for “ADRA2A”
Chain of 5-hydroxytryptamine receptor 1D (P28221 whole entry): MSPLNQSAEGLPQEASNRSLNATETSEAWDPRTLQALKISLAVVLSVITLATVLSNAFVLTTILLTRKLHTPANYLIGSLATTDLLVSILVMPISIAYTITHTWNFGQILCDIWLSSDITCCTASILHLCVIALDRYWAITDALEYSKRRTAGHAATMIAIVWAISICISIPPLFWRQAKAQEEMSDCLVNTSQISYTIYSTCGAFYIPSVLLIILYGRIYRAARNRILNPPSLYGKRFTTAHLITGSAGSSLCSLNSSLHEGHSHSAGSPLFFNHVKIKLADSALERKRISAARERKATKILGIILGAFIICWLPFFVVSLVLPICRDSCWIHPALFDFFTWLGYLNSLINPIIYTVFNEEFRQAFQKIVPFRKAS

[10] = target: T2, Alpha-1D adrenergic receptor (Homo sapiens, UniProt P25100); assay: as §1, with “ADRA1D” for “ADRA2A”
T2 sequence (P25100 whole entry): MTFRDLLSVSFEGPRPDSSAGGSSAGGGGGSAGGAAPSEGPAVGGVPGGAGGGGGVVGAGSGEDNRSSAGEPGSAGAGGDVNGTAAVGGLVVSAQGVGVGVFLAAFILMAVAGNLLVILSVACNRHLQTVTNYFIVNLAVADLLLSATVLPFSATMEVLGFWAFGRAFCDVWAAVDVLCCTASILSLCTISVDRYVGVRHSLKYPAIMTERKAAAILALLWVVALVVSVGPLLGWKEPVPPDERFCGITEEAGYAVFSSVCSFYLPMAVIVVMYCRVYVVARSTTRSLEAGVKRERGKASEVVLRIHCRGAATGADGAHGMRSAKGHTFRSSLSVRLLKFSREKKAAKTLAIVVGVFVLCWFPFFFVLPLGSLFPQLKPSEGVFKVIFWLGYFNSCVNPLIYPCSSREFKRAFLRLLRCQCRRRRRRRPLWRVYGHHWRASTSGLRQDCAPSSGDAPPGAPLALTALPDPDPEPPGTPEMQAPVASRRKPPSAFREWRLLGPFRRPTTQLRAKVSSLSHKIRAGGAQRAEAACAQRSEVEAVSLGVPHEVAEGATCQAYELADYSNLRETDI

[11] = target: Sigma non-opioid intracellular receptor 1 (Homo sapiens, UniProt Q99720); assay: as §1, with “SIGMAR1” for “ADRA2A”
Chain of Sigma non-opioid intracellular receptor 1 (Q99720 whole entry): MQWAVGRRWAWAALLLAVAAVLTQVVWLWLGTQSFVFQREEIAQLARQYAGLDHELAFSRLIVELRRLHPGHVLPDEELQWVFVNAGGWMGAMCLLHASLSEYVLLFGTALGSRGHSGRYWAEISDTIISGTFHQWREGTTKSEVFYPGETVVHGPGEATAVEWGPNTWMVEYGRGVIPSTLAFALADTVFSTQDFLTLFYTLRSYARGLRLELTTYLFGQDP

[12] = target: T3, Alpha-2C adrenergic receptor (Homo sapiens, UniProt P18825); assay: as §1, with “ADRA2C” for “ADRA2A”
T3 sequence (P18825 whole entry): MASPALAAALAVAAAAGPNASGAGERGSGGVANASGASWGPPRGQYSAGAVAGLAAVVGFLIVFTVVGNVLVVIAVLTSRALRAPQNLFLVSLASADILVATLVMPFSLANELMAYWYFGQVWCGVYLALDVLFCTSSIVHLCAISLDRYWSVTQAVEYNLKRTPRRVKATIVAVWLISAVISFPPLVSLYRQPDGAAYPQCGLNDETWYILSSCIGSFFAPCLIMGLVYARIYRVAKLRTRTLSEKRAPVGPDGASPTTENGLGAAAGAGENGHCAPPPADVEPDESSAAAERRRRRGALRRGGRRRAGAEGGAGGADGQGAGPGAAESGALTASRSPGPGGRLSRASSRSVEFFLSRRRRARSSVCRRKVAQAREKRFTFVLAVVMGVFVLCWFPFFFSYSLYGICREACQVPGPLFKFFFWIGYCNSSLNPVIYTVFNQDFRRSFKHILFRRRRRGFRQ

D(4) dopamine receptor = target: T4, D(4) dopamine receptor (Homo sapiens, UniProt P21917); assay: as §1, with “DRD4” for “ADRA2A”
T4 sequence (P21917 whole entry): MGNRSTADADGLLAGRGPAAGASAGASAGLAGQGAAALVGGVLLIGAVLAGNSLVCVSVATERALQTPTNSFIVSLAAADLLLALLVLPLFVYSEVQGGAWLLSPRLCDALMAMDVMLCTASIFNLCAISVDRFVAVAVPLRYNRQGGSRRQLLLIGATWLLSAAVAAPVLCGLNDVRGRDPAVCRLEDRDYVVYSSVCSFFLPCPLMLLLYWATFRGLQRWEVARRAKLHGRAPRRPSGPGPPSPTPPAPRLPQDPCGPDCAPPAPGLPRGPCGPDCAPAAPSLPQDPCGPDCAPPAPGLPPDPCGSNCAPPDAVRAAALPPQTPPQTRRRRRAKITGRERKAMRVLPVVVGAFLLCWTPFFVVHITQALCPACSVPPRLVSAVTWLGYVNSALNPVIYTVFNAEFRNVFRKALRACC

[13] = target: T5, Alpha-1B adrenergic receptor (Homo sapiens, UniProt P35368); assay: as §1, with “ADRA1B” for “ADRA2A”
T5 sequence (P35368 whole entry): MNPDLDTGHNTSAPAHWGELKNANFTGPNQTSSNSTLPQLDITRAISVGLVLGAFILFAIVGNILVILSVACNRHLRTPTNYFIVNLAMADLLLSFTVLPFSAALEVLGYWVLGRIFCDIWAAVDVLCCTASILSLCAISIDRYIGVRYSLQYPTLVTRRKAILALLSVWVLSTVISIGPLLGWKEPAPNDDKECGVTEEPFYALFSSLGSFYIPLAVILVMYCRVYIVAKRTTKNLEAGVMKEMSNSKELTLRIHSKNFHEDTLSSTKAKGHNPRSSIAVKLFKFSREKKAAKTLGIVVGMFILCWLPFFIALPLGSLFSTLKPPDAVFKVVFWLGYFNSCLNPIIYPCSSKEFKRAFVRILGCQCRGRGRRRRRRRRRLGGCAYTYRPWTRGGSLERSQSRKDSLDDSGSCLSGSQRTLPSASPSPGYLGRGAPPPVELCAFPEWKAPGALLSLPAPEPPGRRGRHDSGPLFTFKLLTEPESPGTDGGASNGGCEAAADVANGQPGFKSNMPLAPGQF

D(2) dopamine receptor = D(2) dopamine receptor (Homo sapiens, UniProt P14416); assay: as §1, with “DRD2” for “ADRA2A”
[14] = target: T6, 5-hydroxytryptamine receptor 1A (Homo sapiens, UniProt P08908); assay: as §1, with “HTR1A” for “ADRA2A”
T6 sequence (P08908 whole entry): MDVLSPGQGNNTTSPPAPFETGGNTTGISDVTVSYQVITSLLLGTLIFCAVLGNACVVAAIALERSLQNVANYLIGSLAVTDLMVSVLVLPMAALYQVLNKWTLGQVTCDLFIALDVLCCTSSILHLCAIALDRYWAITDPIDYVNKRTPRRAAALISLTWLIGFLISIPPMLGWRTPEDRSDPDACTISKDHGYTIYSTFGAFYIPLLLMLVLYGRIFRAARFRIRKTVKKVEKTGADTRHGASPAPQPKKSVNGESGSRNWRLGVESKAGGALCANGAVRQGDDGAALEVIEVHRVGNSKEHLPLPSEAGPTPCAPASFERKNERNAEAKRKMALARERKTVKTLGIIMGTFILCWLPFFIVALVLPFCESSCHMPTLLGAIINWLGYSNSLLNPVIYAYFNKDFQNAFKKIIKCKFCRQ

[15] = target: T7, Muscarinic acetylcholine receptor M5 (Homo sapiens, UniProt P08912); assay: as §1, with “CHRM5” for “ADRA2A”
T7 sequence (P08912 whole entry): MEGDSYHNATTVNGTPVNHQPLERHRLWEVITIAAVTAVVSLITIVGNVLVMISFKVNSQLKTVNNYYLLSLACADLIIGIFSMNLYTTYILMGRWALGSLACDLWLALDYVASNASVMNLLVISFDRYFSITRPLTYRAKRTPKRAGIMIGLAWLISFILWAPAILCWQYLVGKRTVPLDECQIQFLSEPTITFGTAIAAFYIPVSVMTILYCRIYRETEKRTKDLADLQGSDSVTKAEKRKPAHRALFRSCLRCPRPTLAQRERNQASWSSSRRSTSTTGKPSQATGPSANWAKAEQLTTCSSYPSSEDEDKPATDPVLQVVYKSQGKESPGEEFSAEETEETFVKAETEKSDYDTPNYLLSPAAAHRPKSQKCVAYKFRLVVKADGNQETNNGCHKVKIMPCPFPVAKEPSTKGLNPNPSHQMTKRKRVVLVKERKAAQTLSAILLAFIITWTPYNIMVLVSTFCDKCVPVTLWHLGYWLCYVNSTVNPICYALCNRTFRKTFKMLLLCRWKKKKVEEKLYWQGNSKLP

[16] = target: Kappa-type opioid receptor (Homo sapiens, UniProt P41145); assay: as §1, with “OPRK1” for “ADRA2A”
Histamine H3 receptor = Histamine H3 receptor (Homo sapiens, UniProt Q9Y5N1); assay: as §1, with “HRH3” for “ADRA2A”
Chain of Histamine H3 receptor (Q9Y5N1 whole entry): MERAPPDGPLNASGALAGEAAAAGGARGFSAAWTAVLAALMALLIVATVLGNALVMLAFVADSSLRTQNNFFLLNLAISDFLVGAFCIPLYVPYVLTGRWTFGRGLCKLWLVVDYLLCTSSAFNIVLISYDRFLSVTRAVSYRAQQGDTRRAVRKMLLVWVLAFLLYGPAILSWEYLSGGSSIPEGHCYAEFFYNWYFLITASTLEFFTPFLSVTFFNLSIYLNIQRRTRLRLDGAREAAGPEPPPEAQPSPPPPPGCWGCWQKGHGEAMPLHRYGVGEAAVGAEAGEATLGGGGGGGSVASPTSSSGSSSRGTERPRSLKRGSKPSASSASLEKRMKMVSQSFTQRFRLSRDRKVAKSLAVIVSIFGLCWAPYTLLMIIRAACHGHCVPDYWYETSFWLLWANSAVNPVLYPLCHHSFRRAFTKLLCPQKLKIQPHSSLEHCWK

SMILES: Cc1cc(C)cc(-c2cnc3cc(Cl)c(-c4cccc(O)c4)cc3c2OCCCN)c1
- Ki [1]: 852 nM
- Ki [2]: 3430 nM
- Ki [3]: 847 nM
- Ki [4]: 5210 nM
- Ki [5]: 5710 nM
- Ki [6]: 2180 nM
- Ki [7]: 5810 nM
- Ki [8]: 2780 nM
- Ki (Translocator protein): 522 nM
- Ki (Mu-type opioid receptor): 5570 nM
- Ki (D(3) dopamine receptor): 416 nM
- Ki (D(1B) dopamine receptor): 993 nM
- Ki [9]: 292 nM
- Ki [10]: 1680 nM
- Ki [11]: > 10000 nM
- Ki [12]: 846 nM

SMILES: CN[C@@H]1CCc2[nH]c3ccc(C(N)=O)cc3c2C1 [FROVATRIPTAN SUCCINATE]
- Ki [4]: 3260 nM
- Ki [5]: 311 nM
- Ki (D(4) dopamine receptor): 909 nM
- Ki [13]: > 10000 nM
- Ki (Mu-type opioid receptor): 187 nM
- Ki (D(2) dopamine receptor): 694 nM
- Ki [14]: 1470 nM

SMILES: CN1CCC(C(=O)c2cccc(NC(=O)c3c(F)cc(F)cc3F)n2)CC1
- Ki [4]: 184 nM
- Ki [5]: 127 nM
- Ki [6]: 5410 nM
- Ki (D(1B) dopamine receptor): 253 nM
- Ki [15]: 632 nM
- Ki [9]: 869 nM
- Ki [11]: 3130 nM
- Ki [16]: 357 nM

SMILES: c1nc(CC2CCNCC2)c[nH]1
- Ki (Histamine H3 receptor): 0.63 nM
